Reference: PubChem BioAssay (NCI)
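How tested: cells in 96-well plates exposed to compound for 48 hours at five concentrations. TGI: concentration producing complete growth inhibition.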

Assays:
Experiment in all cases: NCI-60 cell line screen, 48 h
OVCAR-3 ovarian = system: OVCAR-3 ovarian
EKVX NSCLC = system: EKVX NSCLC
RPMI-8226 leukemia = system: RPMI-8226 leukemia
UACC-257 melanoma = system: UACC-257 melanoma
RXF 393 renal = system: RXF 393 renal
UO-31 renal = system: UO-31 renal
CCRF-CEM leukemia = system: CCRF-CEM leukemia
NCI-H23 lung = system: NCI-H23 lung
A549 NSCLC = system: A549 NSCLC
A498 renal = system: A498 renal
K-562 leukemia = system: K-562 leukemia
NCI-H226 lung = system: NCI-H226 lung
T-47D breast = system: T-47D breast
PC-3 prostate = system: PC-3 prostate
KM12 colon = system: KM12 colon
MDA-N = system: MDA-N
HL-60(TB) leukemia = system: HL-60(TB) leukemia
UACC-62 melanoma = system: UACC-62 melanoma
OVCAR-5 ovarian = system: OVCAR-5 ovarian
M14 melanoma = system: M14 melanoma

Row | SMILES | TGI (OVCAR-3 ovarian) | TGI (EKVX NSCLC) | TGI (RPMI-8226 leukemia) | TGI (UACC-257 melanoma) | TGI (RXF 393 renal) | TGI (UO-31 renal) | TGI (CCRF-CEM leukemia) | TGI (NCI-H23 lung) | TGI (A549 NSCLC) | TGI (A498 renal) | TGI (K-562 leukemia) | TGI (NCI-H226 lung) | TGI (T-47D breast) | TGI (PC-3 prostate) | TGI (KM12 colon) | TGI (MDA-N) | TGI (HL-60(TB) leukemia) | TGI (UACC-62 melanoma) | TGI (OVCAR-5 ovarian) | TGI (M14 melanoma)
1 | CC1=C2C3=C(C)C(=O)C(C)(C)CC[C@@]3(C)[C@]2(C)CCC(C)(C)C1=O | > 100 µM | > 100 µM | > 100 µM | > 100 µM | > 100 µM | > 100 µM | > 100 µM | > 100 µM | > 100 µM | > 100 µM | > 100 µM | > 100 µM | > 100 µM | > 100 µM | > 100 µM | > 100 µM | > 100 µM | > 100 µM | > 100 µM | > 100 µM
2 | O=c1[nH]nc(-c2cccc(Br)c2)[nH]1 | > 100 µM | 79.1 µM | > 100 µM | > 100 µM | > 100 µM | > 100 µM | > 100 µM | > 100 µM | > 100 µM | > 100 µM | > 100 µM | > 100 µM | > 100 µM | > 100 µM | > 100 µM | > 100 µM | > 100 µM | > 100 µM | > 100 µM | > 100 µM
3 | N#Cc1nc(COCCOCc2ccccc2)oc1N | > 100 µM | > 100 µM | > 100 µM | > 100 µM | > 100 µM | > 100 µM | > 100 µM | > 100 µM | > 100 µM | > 100 µM | > 100 µM | > 100 µM | > 100 µM | > 100 µM | > 100 µM | > 100 µM | > 100 µM | > 100 µM | > 100 µM | > 100 µM
4 | CC(=O)NCc1nc(C#N)c(N)o1 | > 100 µM | > 100 µM | > 100 µM | > 100 µM | > 100 µM | > 100 µM | > 100 µM | > 100 µM | > 100 µM | > 100 µM | > 100 µM | > 100 µM | > 100 µM | > 100 µM | > 100 µM | > 100 µM | > 100 µM | > 100 µM | > 100 µM | > 100 µM
5 | O=[N+]([O-])C(C(Cl)=C(Cl)Cl)=C(N1CCOCC1)N1CCOCC1 | > 100 µM | > 100 µM | > 100 µM | > 100 µM | > 100 µM | > 100 µM | > 100 µM | > 100 µM | > 100 µM | > 100 µM | > 100 µM | > 100 µM | > 100 µM | > 100 µM | > 100 µM | > 100 µM | > 100 µM | > 100 µM | > 100 µM | > 100 µM
6 | Nc1nc(Cl)cc(NCC2(CO)CC(OCc3ccccc3)C2)n1 (configuration not stated) | > 100 µM | > 100 µM | > 100 µM | > 100 µM | > 100 µM | > 100 µM | > 100 µM | > 100 µM | > 100 µM | 86.5 µM | > 100 µM | > 100 µM | 41.9 µM | > 100 µM | > 100 µM | > 100 µM | > 100 µM | > 100 µM | > 100 µM | –
7 | NC(N)=N/N=C/c1c(Cl)nc2sccn12 | 90.9 µM | > 100 µM | 53.1 µM | 49 µM | 65.1 µM | > 100 µM | 73 µM | > 100 µM | 93.8 µM | > 100 µM | 87.4 µM | 66.9 µM | > 100 µM | > 100 µM | 37.4 µM | > 100 µM | 42.1 µM | > 100 µM | 80.9 µM | 34.5 µM
8 | Brc1ccc2c(-c3nc(-c4c[nH]c5ccc(Br)cc45)cs3)c[nH]c2c1 | 28 µM | 6.98 µM | 14 µM | 23.6 µM | 12.4 µM | 13.7 µM | > 27.7 µM | 13.3 µM | 17 µM | 11.8 µM | > 22.3 µM | 5.37 µM | 31.9 µM | 17.9 µM | 8.19 µM | 16.4 µM | 23.2 µM | > 48.4 µM | 10.4 µM | 13.8 µM
9 | O=C(CC(=O)N(C(=O)c1ccccc1)c1ccc(Cl)cc1)N/N=C\c1cc(N=Nc2ccccc2Cl)ccc1O | > 100 µM | > 100 µM | > 100 µM | – | > 100 µM | > 100 µM | 51.4 µM | > 100 µM | > 100 µM | 85.6 µM | 36 µM | > 100 µM | > 100 µM | > 100 µM | > 100 µM | > 100 µM | 26.2 µM | > 100 µM | > 100 µM | > 100 µM
10 | Nc1nc(Cl)cc(NCC2(CO)COC2)n1 | > 100 µM | > 100 µM | > 100 µM | > 100 µM | > 100 µM | > 100 µM | > 100 µM | > 100 µM | > 100 µM | > 100 µM | > 100 µM | > 100 µM | > 100 µM | > 100 µM | > 100 µM | > 100 µM | > 100 µM | > 100 µM | > 100 µM | –
